# From patent US20190282590A1, “MEDICAMENT FOR TREATMENT AND/OR PROPHYLACTIC TREATMENT OF BREAST CANCER” (HAKMED AB, priority 2016, published 2019)
# Tests used:
# [1] = type: in vivo
# Text: Since July 2005 369 cases of MBC were identified from the Swedish Cancer Register and each case was matched to five controls (n=[…]) from the general population of the same age and domicile. Medicines with documented side effects of hormonal imbalance or gynecomastia were collected from the Prescribed Drug Register in operation since July 2005. Drug exposure was followed both for cases and controls until the cancer diagnosis or death of the case. Cases and controls with a diagnosis of prostate cancer were excluded. The data were mainly analyzed with conditional logistic regression and Cox regression.
# Cox regression and nested case-control analysis were used in analysis of the ever-use variable of any of the included medicines, after the exclusion phases (described below), as well as after the grouping phase and generated study design-specific hazard ratios (HR) and 95% confidence intervals (CI). P-values less than 0.05 were considered statistically significant. All processing of the data and statistical analysis was made using R programming for statistical computing and ended with the effectuation of conditional logistic regression, Cox regression and nested case-control. Using multiple statistical methods provided additional statistical certainty.
# In this second line of statistical analysis, the match sets created by Statistics Sweden were kept, using the ID number of the case to connect the five matched controls to each case. All medical use after the time of diagnosis of the case was excluded, which applied also to the controls, meaning that the matched control's medical usage after the date of diagnosis of the case was censored using the predefined match sets. All subjects were classified as non-users until the date of the first prescription of one of the included medicines. […]
# The first prescribed medicine for each individual with recorded medical use was selected, since this was likely to be the medicine each individual had used for the longest period of time. […]
# [2] = cited from earlier work
# [3] = prevention mainly limited to less severe prostate cancer; cited from earlier work
# [4] = except in skeletal muscle tissue; cited from earlier work
smiles,measurement,setting,value
COc1cc2nc(N3CCN(C(=O)C4CCCO4)CC3)nc(N)c2cc1OC (stereo not shown) [Terazosin],Association of medication use with risk of MBC (in words),[1],significant correlation to increased risk of MBC
"C[C@]12C=CC(=O)N[C@@H]1CC[C@@H]1[C@@H]2CC[C@]2(C)[C@@H](C(=O)Nc3cc(C(F)(F)F)ccc3C(F)(F)F)CC[C@@H]12 [dutasteride, (5α,17β)-N-{2,5-Bis(trifluoromethyl)phenyl}-3-oxo-4-azaandrost-1-ene-17-carboxamide]",Adverse effects in clinical studies,"[2]; 5 mg daily for 6 months, patients, compared with therapeutic dose 0.5 mg",no additional adverse effects
same,Safety of single daily doses,"[2]; up to 40 mg/day (80 times the therapeutic dose) for 7 days, healthy volunteers",without significant safety concerns
same,Preventive effect on MBC (in words),"[1]; register study, 5-ARI users",preventive effect was strongest
same,Effect on prostate cancer (in words),[3],a better prognosis has been shown
COc1cc2nc(N(C)CCCNC(=O)C3CCCO3)nc(N)c2cc1OC (stereo not shown) [Alfuzosin],Association of medication use with risk of MBC (in words),[1],significant correlation to increased risk of MBC
"C[C@]12CCC(=O)C[C@@H]1CC[C@@H]1[C@@H]2CC[C@]2(C)[C@@H](O)CC[C@@H]12 [DHT, dihydrotestosterone]",Potency relative to testosterone or other androgens,[4],3-5 times
